Legend:
[1] = test system: Human immunodeficiency virus 1; assay: Antiviral activity against HIV1 by cell based luciferase assay; type: functional, organism-based
[2] = molecular target: Human immunodeficiency virus type 1 integrase (Human immunodeficiency virus 1, UniProt Q7ZJM1); assay: Inhibition of HIV-1 integrase-mediated 3'-processing and strand transfer activity
[3] = test system: Human immunodeficiency virus 1; assay: Antiviral activity against HIV1 assessed as inhibition of viral replication after 6 days by cell based p24 antigen assay; conditions: Human immunodeficiency virus 1, 144 h
[4] = test system: Human immunodeficiency virus 1; assay: Antiviral activity against HIV1 by cell based luciferase assay in presence of 50% serum; type: functional

Chain of Human immunodeficiency virus type 1 integrase (Q7ZJM1 whole entry): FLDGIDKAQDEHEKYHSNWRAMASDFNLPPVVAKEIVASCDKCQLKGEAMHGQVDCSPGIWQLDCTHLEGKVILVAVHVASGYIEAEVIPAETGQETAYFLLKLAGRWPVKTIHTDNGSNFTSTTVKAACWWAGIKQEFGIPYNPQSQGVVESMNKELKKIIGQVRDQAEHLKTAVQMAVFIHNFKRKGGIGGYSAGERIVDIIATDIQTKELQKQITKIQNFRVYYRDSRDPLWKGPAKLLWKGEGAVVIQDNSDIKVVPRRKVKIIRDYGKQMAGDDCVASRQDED

| Structure (SMILES) | EC50 [1] [nM] | IC50 [2] [nM] | EC50 [3] [nM] | fold change (FC) [4] |
| --- | --- | --- | --- | --- |
| O=c1c(O)c(-c2ncc(Cc3ccc(F)cc3)s2)nc2c(N3CCCS3(=O)=O)cc(N3CCOCC3)cn12 | 11.5 | 36 | – | – |
| O=c1c(O)c(-c2ncc(Cc3ccc(F)cc3)s2)nc2ccc(N3CCOCC3)cn12 | 32 | 20 | 16.5 | – |
| O=c1c(O)c(-c2ncc(Cc3ccc(F)cc3)s2)nc2c(Br)cc(N3CCOCC3)cn12 | 14 | 42 | 4.35 | – |
| O=C(NCc1ccc(F)cc1)c1nc2ccc(N3CCOCC3)cn2c(=O)c1O | 215 | 775 | 28 | – |
| O=c1c(O)c(-c2nnc(Cc3ccc(F)cc3)o2)nc2ccc(N3CCOCC3)cn12 | – | 310 | 215 | – |
| O=c1c(O)c(-c2noc(Cc3ccc(F)cc3)n2)nc2ccc(N3CCOCC3)cn12 | – | 450 | 99 | – |
| O=c1c(O)c(-c2nnc(Cc3ccc(F)cc3)[nH]2)nc2ccc(N3CCOCC3)cn12 | 198 | – | – | – |
| O=c1c(O)c(-c2nnc(Cc3ccc(F)cc3)s2)nc2ccc(N3CCOCC3)cn12 | – | 225 | 14 | – |
| O=c1c(O)c(-c2nc(Cc3ccc(F)cc3)no2)nc2ccc(N3CCOCC3)cn12 | > 1000 | > 10000 | – | – |
| O=c1c(O)c(-c2ncc(Cc3ccc(F)cc3)o2)nc2ccc(N3CCOCC3)cn12 | 21.5 | 59 | 6 | – |
| O=c1c(O)c(-c2ncc(Cc3ccc(F)cc3)[nH]2)nc2ccc(N3CCOCC3)cn12 | 62 | 45 | – | – |
| O=c1c(O)c(-c2ncc(Cc3ccc(F)cc3)o2)nc2c(I)cc(N3CCOCC3)cn12 | 9 | 170 | 2.6 | – |
| O=c1c(O)c(-c2ncc(Cc3ccc(F)cc3)[nH]2)nc2c(Br)cc(N3CCOCC3)cn12 | 29 | – | – | – |
| O=c1c(O)c(-c2ncc(Cc3ccc(F)cc3)o2)nc2c(N3CCCS3(=O)=O)cc(N3CCOCC3)cn12 | > 1000 | – | – | – |
| O=c1c(O)c(-c2ncc(Cc3ccc(F)cc3)[nH]2)nc2c(N3CCCS3(=O)=O)cc(N3CCOCC3)cn12 | > 1000 | 95 | – | – |
| CN1CCN(c2cc(N3CCOCC3)cn3c(=O)c(O)c(-c4ncc(Cc5ccc(F)cc5)[nH]4)nc23)S1(=O)=O | 11 | 70 | – | – |
| O=C1OCCN1c1cc(N2CCOCC2)cn2c(=O)c(O)c(-c3ncc(Cc4ccc(F)cc4)[nH]3)nc12 | 64 | 35 | – | – |
| O=C1CCCN1c1cc(N2CCOCC2)cn2c(=O)c(O)c(-c3ncc(Cc4ccc(F)cc4)[nH]3)nc12 | 39 | 47 | – | – |
| CCN(C(=O)C(=O)N(C)C)c1cc(N2CCOCC2)cn2c(=O)c(O)c(-c3ncc(Cc4ccc(F)cc4)[nH]3)nc12 | 86 | – | – | – |
| CC(C)N1CCN(c2cc(N3CCOCC3)cn3c(=O)c(O)c(-c4ncc(Cc5ccc(F)cc5)[nH]4)nc23)C1=O | 6 | – | – | <3 |
